Assays:
[1] = molecular target: Phosphatidylinositol 3-kinase catalytic subunit type 3 (Homo sapiens, UniProt Q8NEB9); experiment: Selectivity interaction (KinomeScan (DiscoverX)) EUB0000229b PIK3C3; details: at 10 µM
[2] = molecular target: Calcium/calmodulin-dependent protein kinase type 1 (Homo sapiens) (UniProt Q14012); experiment: Selectivity interaction (KinomeScan (DiscoverX)) EUB0000229b CAMK1; details: at 10 µM
[3] = molecular target: T1, Dual specificity tyrosine-phosphorylation-regulated kinase 2 (Homo sapiens) (UniProt Q92630); experiment: Selectivity interaction (KinomeScan (DiscoverX)) EUB0000092b DYRK2; details: at 10 µM
T1 sequence (whole entry): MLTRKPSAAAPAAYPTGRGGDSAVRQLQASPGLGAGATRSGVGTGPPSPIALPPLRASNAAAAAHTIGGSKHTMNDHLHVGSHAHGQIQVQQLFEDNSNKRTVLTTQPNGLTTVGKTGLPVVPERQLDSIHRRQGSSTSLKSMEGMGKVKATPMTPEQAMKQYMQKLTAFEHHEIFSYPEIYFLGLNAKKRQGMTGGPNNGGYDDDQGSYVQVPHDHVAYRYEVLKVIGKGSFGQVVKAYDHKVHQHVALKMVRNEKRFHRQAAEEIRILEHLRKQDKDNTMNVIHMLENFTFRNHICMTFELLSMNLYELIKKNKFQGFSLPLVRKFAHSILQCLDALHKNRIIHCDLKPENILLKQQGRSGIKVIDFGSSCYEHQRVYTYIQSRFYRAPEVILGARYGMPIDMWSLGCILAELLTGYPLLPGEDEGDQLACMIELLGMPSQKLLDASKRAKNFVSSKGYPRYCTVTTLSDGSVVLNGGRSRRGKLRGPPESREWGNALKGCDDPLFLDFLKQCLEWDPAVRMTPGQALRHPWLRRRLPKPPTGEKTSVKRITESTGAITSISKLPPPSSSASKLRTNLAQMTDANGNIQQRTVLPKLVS

[4] = test system: Serine/threonine-protein kinase B-raf (Homo sapiens), P15056 [V600E]; experiment: Selectivity interaction (KinomeScan (DiscoverX)) EUB0000618a BRAF; details: at 10 µM
[5] = molecular target: T2, Serine/threonine-protein kinase TAO2 (Homo sapiens) (UniProt Q9UL54); experiment: Selectivity interaction (ActivX KiNativ screen (ex vivo kinase selectivity in human PBMCs)) EUB0001619a TAOK2; type: cell-based; details: PBMC, at 1 µM
T2 sequence (whole entry): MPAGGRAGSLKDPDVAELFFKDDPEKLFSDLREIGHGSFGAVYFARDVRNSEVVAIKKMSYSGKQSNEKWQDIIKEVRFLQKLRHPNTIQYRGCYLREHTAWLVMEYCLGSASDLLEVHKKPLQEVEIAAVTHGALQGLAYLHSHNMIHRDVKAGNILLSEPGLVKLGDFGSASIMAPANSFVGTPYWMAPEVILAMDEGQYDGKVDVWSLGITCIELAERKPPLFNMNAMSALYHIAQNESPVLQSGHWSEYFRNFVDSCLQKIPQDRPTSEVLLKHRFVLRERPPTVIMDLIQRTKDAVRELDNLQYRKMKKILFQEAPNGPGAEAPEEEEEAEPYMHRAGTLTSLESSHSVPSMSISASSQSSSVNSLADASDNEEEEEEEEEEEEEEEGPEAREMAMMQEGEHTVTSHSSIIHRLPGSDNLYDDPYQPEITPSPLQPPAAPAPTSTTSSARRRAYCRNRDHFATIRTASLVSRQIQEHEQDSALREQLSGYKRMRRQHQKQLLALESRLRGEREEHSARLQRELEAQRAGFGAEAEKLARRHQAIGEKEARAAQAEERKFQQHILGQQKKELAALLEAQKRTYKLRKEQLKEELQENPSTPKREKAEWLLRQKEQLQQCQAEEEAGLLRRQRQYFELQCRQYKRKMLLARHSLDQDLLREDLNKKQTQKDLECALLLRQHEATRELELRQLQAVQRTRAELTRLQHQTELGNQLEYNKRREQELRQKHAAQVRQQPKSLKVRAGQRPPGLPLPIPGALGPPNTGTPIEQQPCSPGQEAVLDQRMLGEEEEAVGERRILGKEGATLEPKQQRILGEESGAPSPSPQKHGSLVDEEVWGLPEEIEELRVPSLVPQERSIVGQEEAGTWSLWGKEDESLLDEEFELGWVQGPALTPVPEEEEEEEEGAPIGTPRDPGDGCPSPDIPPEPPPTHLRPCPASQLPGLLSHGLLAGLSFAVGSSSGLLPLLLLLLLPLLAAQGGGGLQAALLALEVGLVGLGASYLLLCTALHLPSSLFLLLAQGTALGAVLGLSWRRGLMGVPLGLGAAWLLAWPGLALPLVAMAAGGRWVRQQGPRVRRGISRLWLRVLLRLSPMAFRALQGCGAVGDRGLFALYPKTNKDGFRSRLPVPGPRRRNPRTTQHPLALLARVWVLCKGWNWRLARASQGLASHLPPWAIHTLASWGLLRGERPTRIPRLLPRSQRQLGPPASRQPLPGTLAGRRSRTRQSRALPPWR

Sequence of Phosphatidylinositol 3-kinase catalytic subunit type 3 (Q8NEB9 whole entry): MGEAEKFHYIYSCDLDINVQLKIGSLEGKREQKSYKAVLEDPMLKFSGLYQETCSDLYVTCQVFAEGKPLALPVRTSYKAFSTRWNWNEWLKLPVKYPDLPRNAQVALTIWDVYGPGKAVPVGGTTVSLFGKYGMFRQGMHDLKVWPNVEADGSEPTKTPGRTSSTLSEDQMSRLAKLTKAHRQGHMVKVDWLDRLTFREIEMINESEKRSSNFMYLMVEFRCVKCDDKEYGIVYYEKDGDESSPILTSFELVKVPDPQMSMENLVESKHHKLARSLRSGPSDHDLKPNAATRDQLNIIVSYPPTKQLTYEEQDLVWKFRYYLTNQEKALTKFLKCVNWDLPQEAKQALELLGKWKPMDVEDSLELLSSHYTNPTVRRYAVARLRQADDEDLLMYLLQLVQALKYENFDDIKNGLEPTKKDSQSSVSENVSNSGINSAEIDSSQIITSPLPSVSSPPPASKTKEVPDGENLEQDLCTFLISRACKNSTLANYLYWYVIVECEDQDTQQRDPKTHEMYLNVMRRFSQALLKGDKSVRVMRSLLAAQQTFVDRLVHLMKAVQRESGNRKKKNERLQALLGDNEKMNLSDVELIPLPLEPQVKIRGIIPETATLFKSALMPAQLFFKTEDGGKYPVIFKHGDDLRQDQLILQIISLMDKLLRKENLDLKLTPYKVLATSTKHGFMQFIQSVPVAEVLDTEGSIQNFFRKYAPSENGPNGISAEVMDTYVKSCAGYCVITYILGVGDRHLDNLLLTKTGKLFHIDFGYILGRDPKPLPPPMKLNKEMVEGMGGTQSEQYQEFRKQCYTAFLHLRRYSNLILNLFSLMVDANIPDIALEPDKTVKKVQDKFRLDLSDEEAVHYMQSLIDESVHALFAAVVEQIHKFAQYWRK
Sequence of Calcium/calmodulin-dependent protein kinase type 1 (Homo sapiens) (Q14012 whole entry, looked up): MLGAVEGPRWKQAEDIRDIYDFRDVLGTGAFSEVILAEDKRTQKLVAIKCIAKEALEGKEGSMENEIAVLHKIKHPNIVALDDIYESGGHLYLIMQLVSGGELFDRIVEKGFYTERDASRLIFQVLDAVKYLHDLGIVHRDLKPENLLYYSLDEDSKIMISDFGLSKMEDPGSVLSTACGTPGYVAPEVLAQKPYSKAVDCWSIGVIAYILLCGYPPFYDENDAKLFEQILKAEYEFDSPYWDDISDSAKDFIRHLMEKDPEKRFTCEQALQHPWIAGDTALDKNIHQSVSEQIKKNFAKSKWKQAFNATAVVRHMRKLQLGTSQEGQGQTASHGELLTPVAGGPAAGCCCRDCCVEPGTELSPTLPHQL
Sequence of Serine/threonine-protein kinase B-raf (Homo sapiens), P15056 [V600E] (P15056 whole entry V600E): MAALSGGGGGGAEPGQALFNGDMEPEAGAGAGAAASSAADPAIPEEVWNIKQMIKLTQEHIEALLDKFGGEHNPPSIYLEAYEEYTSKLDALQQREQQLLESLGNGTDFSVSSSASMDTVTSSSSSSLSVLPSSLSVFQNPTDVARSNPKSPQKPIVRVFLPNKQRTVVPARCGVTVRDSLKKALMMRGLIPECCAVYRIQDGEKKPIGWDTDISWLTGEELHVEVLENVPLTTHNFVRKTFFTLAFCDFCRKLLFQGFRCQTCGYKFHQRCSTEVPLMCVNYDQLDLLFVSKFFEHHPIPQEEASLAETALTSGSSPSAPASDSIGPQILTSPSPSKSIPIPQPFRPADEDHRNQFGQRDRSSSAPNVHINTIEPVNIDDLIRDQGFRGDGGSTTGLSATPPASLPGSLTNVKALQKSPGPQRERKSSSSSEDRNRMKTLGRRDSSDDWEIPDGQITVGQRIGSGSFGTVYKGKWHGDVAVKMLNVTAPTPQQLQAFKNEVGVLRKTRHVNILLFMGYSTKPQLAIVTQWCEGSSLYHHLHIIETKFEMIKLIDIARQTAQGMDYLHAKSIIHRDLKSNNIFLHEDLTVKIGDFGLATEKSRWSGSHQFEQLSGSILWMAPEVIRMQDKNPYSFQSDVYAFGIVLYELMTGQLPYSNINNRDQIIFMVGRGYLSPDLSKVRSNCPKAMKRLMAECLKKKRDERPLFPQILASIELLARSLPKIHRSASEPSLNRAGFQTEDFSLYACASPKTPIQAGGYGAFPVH

COc1cc(N(C)c2ccnc3ccc(C(F)(F)F)cc23)cc(OC)c1OC
% binding [1]: 93% | % binding [2]: 59%

CCC(=O)N1CCN(c2ccc(-n3c(=O)ccc4cnc5ccc(-c6cnc7ccccc7c6)cc5c43)cc2C(F)(F)F)CC1
% of control [3]: 86%

O[C@H]1CC[C@H](Nc2ncc3nc(Nc4c(F)cc(F)cc4F)n([C@H]4CCOC4)c3n2)CC1
% of control [4]: 98%

N#Cc1cccc(-c2c[nH]c3ncnc(N4CCOCC4)c23)c1
% of inhibition [5]: -3%

— ChEMBL document CHEMBL5465560, “Selectivity Literature for EUbOPEN Chemogenomic Library” (2024)
